The text below walks through data of US9695155B2, “Herbicidal substituted pyrimidinyloxy benzene compounds” (E. I. DU PONT DE NEMOURS AND COMPANY, priority 2013, dated 2017).

Each structure is given as a SMILES string.

Test [1] deals with corn. In words: Test E postemergence. It counts as in vivo, Zea mays. The text has this:
(§1) Seeds of plant species selected from corn (Zea mays), soybean (Glycine max), velvetleaf (Abutilon theophrasti), lambsquarters (Chenopodium album), wild poinsettia (Euphorbia heterophylla), palmer pigweed (Amaranthus palmeri), waterhemp (common waterhemp, Amaranthus rudis), surinam grass (Brachiaria decumbens), large (Lg) crabgrass (Digitaria sanguinalis), Brazilian crabgrass (Digitaria horizontalis), fall panicum (Panicum dichotomiflorum), giant foxtail (Setaria faberii), green foxtail (Setaria viridis), goosegrass (Eleusine indica), johnsongrass (Sorghum halepense), ragweed (common ragweed, Ambrosia elatior), barnyardgrass (Echinochloa crus-galli), sandbur (southern sandbur, Cenchrus echinatus), arrowleaf sida (Sida rhombifolia), Italian ryegrass (Lolium multiflorum), dayflower (Virginia (VA) dayflower, Commelina virginica), field bindweed (Convolvulus arvensis), morningglory (Ipomoea coccinea), nightshade (eastern black nightshade, Solanum ptycanthum), kochia (Kochia scoparia), yellow nutsedge (Cyperus esculentus), cocklebur (common cocklebur, Xanthium strumarium), smartweed (ladysthumb smartweed, and hairy beggarticks (Bidens pilosa), were planted into a silt loam soil and treated preemergence with test chemicals formulated in a non-phytotoxic solvent mixture which included a surfactant.
(§2) At the same time, plants from these crop and weed species and also horseweed (Canada horseweed, Conyza canadensis), waterhemp_RES1, (ALS & Triazine resistant common waterhemp, Amaranthus rudis), and waterhemp_RES2, (ALS & HPPD resistant common waterhemp, Amaranthus rudis) were planted in pots containing Redi-Earth® planting medium (Scotts Company, 14111 Scottslawn Road, Marysville, Ohio 43041) comprising spaghnum peat moss, vermiculite, wetting agent and starter nutrients were treated with postemergence applications of test chemicals formulated in the same manner. Plants ranged in height from 2 to 18 cm for postemergence treatments (1- to 4-leaf stage). Treated plants and controls were maintained in a greenhouse for 14 to 21 days, after which time all species were compared to controls and visually evaluated. Plant response ratings, summarized in Table E, are based on a scale of 0 to 100 where 0 is no effect and 100 is complete control. A dash (-) response means no test result.

For test [2], the system named is soybean. Kind of test: Test E postemergence. It counts as in vivo, Glycine max.
From the text: as §1, §2

The test system of test [3] is sandbur. Kind of test: Test E postemergence. It counts as in vivo, Cenchrus echinatus.
From the text: as §1, §2

The test system of test [4] is arrowleaf sida. In words: Test E postemergence. It counts as in vivo, Sida rhombifolia.
From the text: as §1, §2

Test [5] has as its system deadnettle. In words: Test D preemergence. It counts as in vivo, Lamium amplexicaule. An outline of the steps:
(§3)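 After treatment, visual injury versus untreated plants, 0–100 scale, assessed at 7 to 21 days. Applications were made preemergence to silt loam-sown seed and postemergence to seedlings 2–18 cm high in potting medium.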

For test [6], the system named is spring wheat. Kind of test: Test D preemergence. It counts as in vivo, Triticum aestivum. An outline of the steps:
as §3

For test [7], the system named is winter wheat. In words: Test D preemergence. It counts as in vivo, Triticum aestivum. In short, it runs like this:
as §3

The test system of test [8] is wild mustard. In words: Test D preemergence. It counts as in vivo, Sinapis arvensis. In short, it runs like this:
as §3

The subject of test [9] is bluegrass. Kind of test: Test D postemergence. It counts as in vivo, Poa annua. To be noted: Postemergence, scale 0 to 100 (0 no effect, 100 complete control). An outline of the steps:
as §3

The subject of test [10] is galium. In words: Test D postemergence. It counts as in vivo, Galium aparine. An outline of the steps:
as §3

Test [11] has as its system field violet. In words: Test D postemergence. It counts as in vivo, Viola arvensis. An outline of the steps: as §3
Test [12] has as its system Italian ryegrass. Kind of test: Test D postemergence. It counts as in vivo, Lolium multiflorum. In short, it runs like this: as §3
Test [13] relates to oilseed rape. In words: Test D postemergence. It counts as in vivo, Brassica napus. In short, it runs like this:
as §3

The mark [14] stands for this setting: Postemergence, 31 g ai/ha, scale 0 to 100.
Setting [15] is: Postemergence, 62 g ai/ha, scale 0 to 100.
Setting [16] is: Postemergence, 125 g ai/ha, scale 0 to 100.
The mark [17] stands for this setting: Postemergence, 250 g ai/ha, scale 0 to 100.
Where [18] appears, read: postemergence, 16 g ai/ha, scale 0 to 100, 0 no effect, 100 complete control.
The mark [19] stands for this setting: postemergence, 8 g ai/ha, scale 0 to 100, 0 no effect, 100 complete control.
[20] abbreviates: 31 g ai/ha, scale 0 (no effect) to 100 (complete control).
The mark [21] stands for this setting: 62 g ai/ha, scale 0 to 100 (0 no effect, 100 complete control).
[22] abbreviates: 125 g ai/ha, scale 0 to 100 (0 no effect, 100 complete control).
The mark [23] stands for this setting: 250 g ai/ha, scale 0 to 100 (0 no effect, 100 complete control).

In test [1] (Zea mays, post-emergence, Postemergence, 31 g ai/ha, scale 0 to 100), `Fc1cnc(Oc2ccccc2-n2cc(Br)cn2)nc1` [Compound 10, 2-[2-(4-bromo-1H-pyrazol-1-yl)phenoxy]-5-fluoropyrimidine] returned a corn plant response (injury) rating, 0-100 at 31 g/ha of 0%. The compound also returned a corn plant response (injury) rating, 0-100 at 62 g/ha in test [1] (Zea mays, post-emergence, Postemergence, 62 g ai/ha, scale 0 to 100) of 0%. This compound showed a corn plant response (injury) rating, 0-100 at 125 g/ha in test [1] (Zea mays, post-emergence, Postemergence, 125 g ai/ha, scale 0 to 100) of 0%. This compound also registered a corn plant response (injury) rating, 0-100 at 250 g/ha in [1] (Zea mays, post-emergence, Postemergence, 250 g ai/ha, scale 0 to 100) of 0%. Further, the corn plant response (injury) rating, 0-100 at 16 g/ha in [1] (Zea mays, post-emergence, postemergence, 16 g ai/ha, scale 0 to 100, 0 no effect, 100 complete control) was determined as 0%. Also, the plant response (crop injury) rating, soybean, 0-100 scale at 31 g/ha in test [2] (Glycine max, post-emergence, Postemergence, 31 g ai/ha, scale 0 to 100) is 50%. In test [2] (Glycine max, post-emergence, Postemergence, 62 g ai/ha, scale 0 to 100), this compound gave a plant response (crop injury) rating, soybean, 0-100 scale at 62 g/ha of 75%. This compound showed a plant response (crop injury) rating, soybean, 0-100 scale at 125 g/ha in test [2] (Glycine max, post-emergence, Postemergence, 125 g ai/ha, scale 0 to 100) of 90%. In test [2] (Glycine max, post-emergence, Postemergence, 250 g ai/ha, scale 0 to 100), this compound gave a plant response (crop injury) rating, soybean, 0-100 scale at 250 g/ha of 95%. The compound further gave a plant response (crop injury) rating, soybean, 0-100 scale at 16 g/ha in test [2] (Glycine max, post-emergence, postemergence, 16 g ai/ha, scale 0 to 100, 0 no effect, 100 complete control) of 30%. For the same compound, the pest or weed control at 31 g/ha in test [3] (Cenchrus echinatus, post-emergence, Postemergence, 31 g ai/ha, scale 0 to 100, read-out: Plant response rating, Sandbur) worked out at 0%; in [4] (Sida rhombifolia, post-emergence, Postemergence, 31 g ai/ha, scale 0 to 100, read-out: Plant response rating, Arrowleaf Sida), 50%. Further, the pest or weed control at 62 g/ha was found to be 0% in test [3] (Cenchrus echinatus, post-emergence, Postemergence, 62 g ai/ha, scale 0 to 100, read-out: Plant response rating, Sandbur) and 70% in [4] (Sida rhombifolia, post-emergence, Postemergence, 62 g ai/ha, scale 0 to 100, read-out: Plant response rating, Arrowleaf Sida). The pest or weed control at 125 g/ha in test [3] (Cenchrus echinatus, post-emergence, Postemergence, 125 g ai/ha, scale 0 to 100, read-out: Plant response rating, Sandbur) came to 0%; in test [4] (Sida rhombifolia, post-emergence, Postemergence, 125 g ai/ha, scale 0 to 100, read-out: Plant response rating, Arrowleaf Sida), 80%. The pest or weed control at 250 g/ha was 0% in test [3] (Cenchrus echinatus, post-emergence, Postemergence, 250 g ai/ha, scale 0 to 100, read-out: Plant response rating, Sandbur) and 85% in test [4] (Sida rhombifolia, post-emergence, Postemergence, 250 g ai/ha, scale 0 to 100, read-out: Plant response rating, Arrowleaf Sida). For the same compound, the pest or weed control at 16 g/ha in test [3] (Cenchrus echinatus, post-emergence, postemergence, 16 g ai/ha, scale 0 to 100, 0 no effect, 100 complete control, read-out: Plant response rating, Sandbur) amounted to 0%; in test [4] (Sida rhombifolia, post-emergence, postemergence, 16 g ai/ha, scale 0 to 100, 0 no effect, 100 complete control, read-out: Plant response rating, Arrowleaf Sida) it was 40%.
In the case of `FC(F)(F)c1cnn(-c2ccccc2Oc2ncc(Cl)cn2)c1` [Compound 16], the “Plant response rating, Corn” value came out at 0 in test [1] (setting [14]); 0 in test [1] (setting [15]); 10 in test [1] (setting [16]); 15 in test [1] (setting [17]); 0 in test [1] (setting [18]). For the same compound, the “Plant response rating, Soybean” value was 30 in test [2] (setting [14]); 80 in test [2] (setting [15]); 95 in test [2] (setting [16]); 95 in [2] (setting [17]); 15 in test [2] (setting [18]). Moreover, the “Plant response rating, Sandbur” value in test [3] (setting [14]), in [3] (setting [15]), in test [3] (setting [16]), in test [3] (setting [17]) and in test [3] (setting [18]) was 0 in each case. The “Plant response rating, Arrowleaf Sida” value was 70 in test [4] (setting [14]); 75 in test [4] (setting [15]); 80 in [4] (setting [16]); 90 in [4] (setting [17]); 50 in test [4] (setting [18]).
`Clc1cnc(Oc2cccc(Br)c2-n2cc(Br)cn2)nc1` [Compound 65]: the “Plant response rating, Corn” value in test [1] (setting [14]) is reported as 10; in test [1] (setting [15]) it was 10; in test [1] (setting [16]), 10; in [1] (setting [19]), 0; in [1] (setting [18]), 0. The “Plant response rating, Soybean” value was 20 in test [2] (setting [14]); 50 in [2] (setting [15]); 98 in [2] (setting [16]); 15 in test [2] (setting [19]); 20 in [2] (setting [18]). Also, the “Plant response rating, Sandbur” value in [3] (setting [14]), in test [3] (setting [15]), in test [3] (setting [16]), in [3] (setting [19]) and in [3] (setting [18]) was 0 throughout. Besides, the “Plant response rating, Arrowleaf Sida” value in test [4] (setting [14]) worked out at 60; in test [4] (setting [15]) it was 80; in test [4] (setting [16]), 80; in test [4] (setting [19]) it was 55; in [4] (setting [18]) it was 50.
On to `N#Cc1cccc(Oc2ncc(Cl)cn2)c1-n1cc(-n2ccc(C(F)(F)F)n2)cn1` [Compound 284], for which the “Plant response rating, Deadnettle” value in [5] (setting [20]) turned out to be 35; in test [5] (62 g ai/ha, scale 0-100), 45; in test [5] (125 g ai/ha, scale 0-100), 75; in test [5] (250 g ai/ha, scale 0-100) it was 100. The “Plant response rating, Wheat, Spring” value in [6] (setting [20]) is given as 10; in test [6] (125 g ai/ha, scale 0-100), 20; in test [6] (250 g ai/ha, scale 0-100), 30. The “Plant response rating, Wheat, Winter” value is reported as 15 in [7] (setting [20]); 20 in test [7] (125 g ai/ha, scale 0-100); 25 in [7] (250 g ai/ha, scale 0-100). Also, the “Plant response rating, Mustard, Wild” value in [8] (setting [20]) is given as 15; in test [8] (62 g ai/ha, scale 0-100) it was 15; in [8] (125 g ai/ha, scale 0-100), 90; in test [8] (250 g ai/ha, scale 0-100), 100. Moreover, the “Plant response rating, Bluegrass” value in test [9] (62 g ai/ha) is listed as 35; in test [9] (31 g ai/ha), 25; in test [9] (125 g ai/ha), 40; in [9] (250 g ai/ha) it was 45. For the same compound, the “Plant response rating, Galium” value in [10] (31 g ai/ha, scale 0-100) is recorded as 70; in [10] (setting [21]), 85; in test [10] (setting [22]) it was 85; in [10] (setting [23]) it was 95. Moreover, the “Plant response rating, Field Violet” value in test [11] (31 g ai/ha, scale 0-100) was found to be 100; in test [11] (setting [21]) it was 85; in [11] (setting [22]), 100; in [11] (setting [23]), 100. The “Plant response rating, Ryegrass, Italian” value in test [12] (31 g ai/ha, scale 0-100) is reported as 10; in test [12] (setting [21]), 10; in test [12] (setting [22]) it was 15; in [12] (setting [23]), 15. Also, the “Plant response rating, Oilseed Rape” value in [13] (31 g ai/ha, scale 0-100) stood at 65; in test [13] (setting [21]), 70; in test [13] (setting [22]), 100; in [13] (setting [23]) it was 100.
